Measurements taken from US6543181B1, “Fruit fly attractant compositions” (Iowa State University Research Foundation, Inc., priority 2001, dated 2003).

Tests used:
[1] = test system: Drosophila melanogaster antennae; design: key to the marks not given beside the values
[2] = test system: Drosophila melanogaster adult fruit flies; test: Attraction-trapant behavioral bioassay (cup traps in screen cages); assay type: in vivo; conditions: for Catches per day (mean ± S.E.): 100-150 flies released
Description: Three different sizes of screen cages (w×h×l: 26 cm×26 cm×30 cm; 48×61×61; and 88×36×46) were used for the trapping experiments. Trapping experiments were carried out either in the laboratories, or in nearby green houses.
The attraction-trapant assay traps were constructed from cylindrical, clear plastic jelly cups (4.0 cm I.D. at top, 3.0 cm I.D. bottom; 2.5 cm high) with a tightly fitting paper lid. The lids were pre-drilled with a hole having a diameter of about 2 mm, which was the only aperture through which volatiles from candidate attractants could emanate, and also the only entrance through which attracted flies could enter the trap chamber. In all experiments, a 1-cm-long, 0.5-cm-diameter piece of cotton dental wick was used as the substrate onto which different compositions of potential attractants were loaded for testing, and then the wick was placed in the bottom of the cup and the lid then sealed in position at the beginning of testing.
Traps containing a series of compositions to be compared were tested in a randomized, complete-block design, with one replicate of a treatment series deployed per cage. The traps were placed in an array with usually approximately 15 cm between traps. If three treatments were to be compared (including control), the array took the form of a triangle. If there were four treatments, then the four trap-cups formed a square.
No glue or toxicant was used inside the traps, and captures depended on the ability of the attractant-trapant composition to both attract the fruit flies as well as retain them in the chamber by keeping them from wandering back to the entrance hole on the lid and exiting through it. During these assays, observations of the fruit flies' behavior were often made, and they could routinely be observed flying slowly around the cage before descending to one of the traps on the floor of the cage, landing on it, and then walking more or less directly to the hole on the lid and entering the trap.
[…] […] During this period the trap positions were rotated at several hour intervals in order to minimize any possible trap position effects.

[3] = Table 3, 10 mg in cup trap, traps checked daily for 5 days
[4] = Table 4, ratios of acetic acid and 2-phenylethanol, total lure 10 mg, no water added, checked daily for 5 days

SMILES | Catches per day (mean ± S.E.) [2, 3] | also measured
C=CCc1ccc(OC)c(OC)c1 [1,2-dimethoxy-4-(2-propenyl)-benzene] | – | EAG activity [1]: +++
OCCc1ccccc1 [2-phenylethanol] | 3.15 ± 1.63 | Catches per day (mean ± S.E.) ([2]; Table 3, 1 mg in cup trap, traps checked daily for 5 days): 0.5 ± 0.29; Catches per day (mean ± S.E.) ([2]; Table 3, 5 mg in cup trap, traps checked daily for 5 days): 1.25 ± 0.63; Catches per day (mean ± S.E.) [2, 4]: 0 ± 0
CC(=O)OCCc1ccccc1 [2-phenylethyl acetate] | 1.87 ± 0.81 | –
CC(=O)O [Acetic acid] | – | Catches per day (mean ± S.E.) [2, 4]: 3.0 ± 1.08; Trap catches ([2]; Table 13, effect of ethyl acetate, 8 replicates): 0.25 ± 0.16
CCOC(=O)C=Cc1ccccc1 [Ethyl cinnamate] | 0.75 ± 0.49 | –
CCCCOC(C)=O [butyl acetate] | – | EAG activity [1]: +++
CCOC(=O)c1ccccc1 [ethyl benzoate] | 0.25 ± 0.16 | –
CCOC(=O)c1ccccc1O [ethyl salicylate] | 0.37 ± 0.18 | –
CCOC(=O)Cc1ccccc1 [ethylphenyl acetate] | 1.5 ± 0.5 | –
CC(=O)OCc1ccccc1 [phenylmethyl acetate] | 0.5 ± 0.27 | –
